Experimental data as given in patent publication US20230108050A1, “CXCL8 (INTERLEUKIN-8) ACTIVITY INHIBITOR AND CORTICOSTEROID COMBINATION AND PHARMACEUTICAL COMPOSITION AND USE THEREOF” (Dompe' farmaceutici SpA, priority 2020, published 2023).

What was measured:
Assay type in all cases: in vivo, BALB/c mice
[1] = system: Th17 glucocorticoid-insensitive asthma mouse model; assay: Lung histology (H&E), Example 2e; conditions: DF2755A 10 mg/kg oral twice a day, dexamethasone 5 mg/kg, FIG. 9
Method: After BALF, left lung was removed and fixed in formalin 4% in PBS (pH 7.4). The tissue was dehydrated gradually in ethanol, embedded in paraffin, cut into 4 μm sections and stained with Hematoxylin and Eosin. Photomicrographs were obtained at 400× magnification and were analyzed using the software Image Pro Plus (Image-Pro Plus 4.1, Media Cybernetics, USA).

[2] = system: Th17 glucocorticoid-insensitive asthma mouse model; assay: Assessment of leukocyte content in the airways (BALF), Example 2a; conditions: DF2755A 10 mg/kg oral twice a day, dexamethasone 5 mg/kg, BALF day 32
Method: The investigation was conducted on the same mouse model as described in Example 1. In details, BALB/c mice received systemic immunization by subcutaneous injection of 20 μg of chicken egg ovalbumin (OVA grade V, >98% pure; Sigma, St Louis, Mo.) in saline, emulsified in 75 μL CFA (Sigma-Aldrich) at day 0. From day 28 after first immunization to day 31, mice were treated with PBS (vehicle), D[…], dexamethasone or D[…]/dexamethasone as described below, and 60 minutes later exposed to aerosolized ovalbumin (1% in saline) for 20 minutes per day. D[…] was administered orally by gavage twice a day so that one of the administrations was always 60 min before the OVA challenge. D[…] was diluted in saline 0.9% only at the time of use at room temperature and used at the dose of 10 mg/kg via the oral route. […] To assess leukocyte infiltration in the airways, bronchoalveolar lavage fluid (BALF) was performed. On day 32 after immunization, an incision was made in the trachea where a 1.7 mm outside diameter polyethylene catheter was inserted. Then, the airways were washed 2 times with 1 mL of phosphate buffer saline (PBS). The samples were centrifuged at 300×g for 10 minutes at 4° C., and 100 μL of 3% BSA in PBS was added to the pellet. A sample of this solution was used to assess the total leukocytes in the airways. The remaining solution was centrifuged at 300×g for 10 minutes at 4° C. and put on a histology glass slide to perform the differential counting of macrophages, lymphocytes, eosinophils and neutrophils using an optical microscopy. The supernatant was used to quantify the amount of total protein and the levels of chemokines and cytokines. The total protein assay was determined using a Bio-Rad protein assay Dye Reagent (Bio-Rad, USA) to measure possible protein leakage.

[3] = system: Th17 glucocorticoid-insensitive asthma mouse model; assay: Assessment of pulmonary mechanics, Example 2d; conditions: DF2755A 10 mg/kg oral twice a day, dexamethasone 5 mg/kg; 24 h after the last challenge; FIG. 8
Method: (§1) The investigation was conducted on the same mouse model as described in Example 1. In details, BALB/c mice received systemic immunization by subcutaneous injection of 20 μg of chicken egg ovalbumin (OVA grade V, >98% pure; Sigma, St Louis, Mo.) in saline, emulsified in 75 μL CFA (Sigma-Aldrich) at day 0.
(§2) From day 28 after first immunization to day 31, mice were treated with PBS (vehicle), DF2755A, dexamethasone or DF2755A/dexamethasone as described below, and 60 minutes later exposed to aerosolized ovalbumin (1% in saline) for 20 minutes per day. DF2755A was administered orally by gavage twice a day so that one of the administrations was always 60 min before the OVA challenge. DF2755A was diluted in saline 0.9% only at the time of use at room temperature and used at the dose of 10 mg/kg via the oral route. Dexamethasone was diluted in saline 0.9% only at the time of use at room temperature and given at the dose of 5 mg/kg.
(§3) Mice were anesthetized with a subcutaneous injection of ketamine and xylazine (130 mg/Kg ketamine and 8.5 mg/Kg xylazine) to maintain spontaneous breathing under anesthesia. […] Under mechanical respiration the Dynamic Compliance (Cdyn) and Lung Resistance (RI) were determined by Resistance and Compliance RC test. […]

[4] = system: Th17 glucocorticoid-insensitive asthma mouse model; assay: Chemokine and cytokine analysis in lung (ELISA), Example 2b; conditions: DF2755A 10 mg/kg oral twice a day, dexamethasone 5 mg/kg, lung supernatant ELISA
Method: as §1, §2
After BALF, the right lung was removed and a sample of 100 mg was homogenized in 1 mL of PBS (0.4 M NaCl and 10 mM of NaPO4) containing anti-proteases (0.1 mM phenylmethylsulfonyl fluoride, 0.1 mM benzetonium chloride, 10 mM EDTA and 20 KI aprotinin A). The homogenate was centrifuged 8,000×g for 10 minutes at 4° C. The supernatant was frozen for further ELISA assay and the pellet was frozen/thawed three times using liquid nitrogen to assess neutrophil myeloperoxidase (MPO) and eosinophil peroxidase (EPO) activities.
The chemokines CXCL1/KC, CCL2/MCP-1 and CCL24/Eotaxin2, and cytokines TNF-α, IFN-γ and IL-17A levels in supernatant of lung tissue were measured by ELISA. Results were expressed as levels of cytokines (pg/mL or ng/mL) per 0.1 g of wet tissue/mL of extraction buffer.

[5] = system: Th17 glucocorticoid-insensitive asthma mouse model; assay: Neutrophil myeloperoxidase and eosinophil peroxidase activity assays in lung, Example 2c; conditions: DF2755A 10 mg/kg oral twice a day, dexamethasone 5 mg/kg
Method: From day 28 after first immunization to day 31, mice were treated with PBS (vehicle), DF2755A, dexamethasone or DF2755A/dexamethasone as described below, and 60 minutes later exposed to aerosolized ovalbumin (1% in saline) for 20 minutes per day. DF2755A was administered orally by gavage twice a day so that one of the administrations was always 60 min before the OVA challenge. DF2755A was diluted in saline 0.9% only at the time of use at room temperature and used at the dose of 10 mg/kg via the oral route. Dexamethasone was diluted in saline 0.9% only at the time of use at room temperature and given at the dose of 5 mg/kg. […]
The neutrophil myeloperoxidase (MPO) and eosinophil peroxidase (EPO) activities were measured as follows. […] The reaction was stopped by adding 100 μL of H2SO4 and quantified at 450 nm wave lengths in a spectrophotometer (VERSAmax, Molecular Devices, CA). […] After 30 minutes of incubation at room temperature, the reaction was stopped by adding 50 μL of H2SO4 1M and quantified at 492 nm in spectrophotometer.

[6] = system: Th17 glucocorticoid-insensitive asthma mouse model; assay: Cytokines quantification in lung tissue (ELISA), Example 1b; conditions: ladarixin 10 mg/Kg oral, dexamethasone 5 mg/Kg s.c., lung lysate ELISA
Method: (§4) The investigation was conducted by using a Th17 glucocorticoid-insensitive asthma mouse model previously described (Campa C C et al., Nat Commun (2018), v. 9, p. 5232 and Dejager Let al., Mucosal Immunol (2015), v. 8, p 1212-25).
(§5) In details, BALB/c mice received systemic immunization by subcutaneous injection of 20 μg of chicken egg ovalbumin (OVA grade V, >98% pure; Sigma, St Louis, Mo.) in saline, emulsified in 75 μL CFA (Sigma-Aldrich) at day 0.
(§6) From day 28 after first immunization to day 31, mice were treated with PBS (vehicle), ladarixin, dexamethasone or ladarixin/dexamethasone as described below, and 60 minutes later exposed to aerosolized ovalbumin (1% in saline) for 20 minutes per day. Ladarixin was administered orally by gavage (10 mg/Kg in saline 0.9%), as previously described (Bertini et al., Br J Pharmacol (2012), v. 165, p. 436-54), once a day. Dexamethasone was administered subcutaneously (5 mg/Kg in saline), once a day.
The levels of IL17A and TNF-α were also measured in the different experimental mice groups. […] Levels of IL-17A and TNF-α were measured by ELISA using commercial DuoSet kits from R&D Systems, according to the instructions of the manufacturer. Results, shown in FIG. 2, are expressed as pg of cytokines per ml of lung lysate (pg/ml).

[7] = system: Th17 glucocorticoid-insensitive asthma mouse model; assay: Neutrophil peroxidase activity (MPO) in lung tissue, Example 1c; conditions: ladarixin 10 mg/Kg oral, dexamethasone 5 mg/Kg s.c.; after OVA exposure; FIG. 4A
Method: MPO assay was performed on the lung tissue in the different experimental mice groups. In details, MPO assay was performed in a 96-well microplate by adding, in each well, 25 μL of 3,3′-5,5′-tetramethylbenzidine (TMB Sigma) diluted in dimethyl sulfoxide (DMSO; Merck, Darmstadt, Germany) at a final concentration of 1.6 mM; 100 μL of H2O2 0.02% vol/vol in PBS (pH 5.4) containing HTAB and 25 μL of processed tissue supernatant. The reaction started, at 37° C., by adding the TMB solution and the supernatant to the microplate and, after 5 min, H2O2 was added followed by a new incubation at 37° C. for 5 min. The reaction was stopped by adding 100 μL of H2SO4 1M and quantified at 450 nm wavelengths in a spectrophotometer (VERSA max, Molecular Devices, CA).

[8] = system: Th17 glucocorticoid-insensitive asthma mouse model; assay: Leukocytes and protein leakage in airways (BALF), Example 1a; conditions: day 28-31, OVA aerosol
Method: as §4, §5, §6
An assessment of total leukocytes content in airways was carried out by performing bronchoalveolar lavage fluid (BALF) as previously described (Russo et al Am J Respir Cell Mol Biol (2009), v. 40, p. 410-21; Campa C C et al., Nat Commun (2018), v. 9, p. 5232). Briefly, an incision was made in the trachea where a 1.7 mm outside diameter polyethylene catheter was inserted. Then, the airways were washed 2 times with 1 mL of phosphate buffer saline (PBS). The samples were centrifuged at 300×g for 10 minutes at 4° C., the pellet was collected, resuspended in 100 μL of 3% BSA in PBS and a sample from this solution was used to assess the total leukocytes in the airways. The remaining was centrifuged at 300×g for 10 minutes at 4° C. on a histology glass slide to assess differential counting of macrophages, lymphocytes, eosinophils and neutrophils using an optical microscopy. Total protein was quantified in the BALF supernatant using a Bio-Rad protein assay Dye Reagent (Bio-Rad, USA) to measure possible protein leakage as previously described (Campa C C et al., Nat Commun (2018), v. 9, p. 5232).

[9] = system: Th17 glucocorticoid-insensitive asthma mouse model; assay: Histological analysis of lung, pulmonary inflammation score, Example 1d; conditions: ladarixin 10 mg/Kg oral, dexamethasone 5 mg/Kg s.c.; six grade scale 0-5; FIG. 4D, FIG. 3
Method: In details, BALB/c mice received systemic immunization by subcutaneous injection of 20 μg of chicken egg ovalbumin (OVA grade V, >98% pure; Sigma, St Louis, Mo.) in saline, emulsified in 75 μL CFA (Sigma-Aldrich) at day 0. […]
Semiquantitative histopathology analyses were performed as described (Campa C C et al., Nat Commun (2018), v. 9, p. 5232). Briefly, ten random images per lung were acquired at 200× and pulmonary inflammation score was recorded according to a six grade scale where “0” corresponded to less than 1% of lung tissue area inflamed, “1” where up to 9% of lung area was affected by inflammation, “2” when 10% to 29% of lung tissue area was affected, “3” if 30% to 49% of lung tissue area was affected, “4” if 50% to 69% of lung tissue area was affected and “5” if more than 70% of the lung tissue area was affected by inflammation.
After BALF, left lung was removed and fixed in formalin 4% in PBS (pH 7.4), as previously described. […] Photomicrographs were obtained at 400× magnification and were analyzed using the software Image Pro Plus (Image-Pro Plus 4.1, Media Cybernetics, USA) under light microscopy. […]

[10] = system: Th17 glucocorticoid-insensitive asthma mouse model; assay: Assessment of pulmonary mechanics, Example 1e; conditions: ladarixin 10 mg/Kg oral, dexamethasone 5 mg/Kg s.c.; FIG. 5B
Method: as §4, §5, §6
as §3, with “Mice form different experimental groups” for “Mice”

C[C@H](C(=O)O)c1ccc(Nc2nc(C(F)(F)F)cs2)cc1 [DF2755A, (2S)-2-(4-{[4-(trifluoromethyl)-1,3-thiazol-2-yl]amino}phenyl) propanoic acid]
lung inflammation, accumulation of leukocytes in the lung tissue (histology, inflammatory score) [1]: effective in reducing accumulation of leukocytes
neutrophil influx into the airways (BALF) ([2]; day 28-31, FIG. 6B): able to reduce
eosinophil influx into the airways (BALF) ([2]; FIG. 6C): able to reduce
lymphocytes influx into the airways (BALF) ([2]; FIG. 6E): able to reduce
pulmonary function / pulmonary mechanics (pulmonary volumes and resistance) [3]: did not significantly increased pulmonary function
CXCL1 level in the lungs ([4]; FIG. 7A): significantly reduced
CCL2 level in the lungs ([4]; FIG. 7B): significantly reduced
CCL24 level in the lungs ([4]; FIG. 7C): significantly reduced
IFN-γ level in the lungs ([4]; FIG. 7D): not significant
IL-17 level in the lungs ([4]; FIG. 7E): significantly reduced
TNF-α level in the lungs ([4]; FIG. 7F): significantly reduced
accumulation of neutrophils in the lungs (MPO activity) ([5]; FIG. 6F): prevented the infiltration
infiltration of eosinophils in the lungs (EPO activity) ([5]; FIG. 6G): prevented the infiltration

C[C@@H](C(=O)NS(C)(=O)=O)c1ccc(OS(=O)(=O)C(F)(F)F)cc1 [ladarixin]
TNF-α level in lung parenchyma ([6]; FIG. 2A): significantly decreased
IL-17A level in lung parenchyma ([6]; FIG. 2B): significantly decreased
neutrophil accumulation in lung parenchyma (MPO activity) [7]: able to prevent the neutrophil accumulation
total leukocyte influx into alveolar space (BALF) ([8]; ladarixin 10 mg/Kg oral once a day, dexamethasone 5 mg/Kg s.c. once a day, FIG. 1A): reduces total leukocyte influx
macrophages infiltrated into airways (BALF) ([8]; ladarixin 10 mg/Kg oral, dexamethasone 5 mg/Kg s.c., FIG. 1B): marked reduction
neutrophils infiltrated into airways (BALF) ([8]; ladarixin 10 mg/Kg oral, dexamethasone 5 mg/Kg s.c., FIG. 1C): marked reduction
eosinophil recruitment into the airways (BALF) ([8]; ladarixin 10 mg/Kg oral, dexamethasone 5 mg/Kg s.c., FIG. 1D): increased
pulmonary inflammation score (lung histology) [9]: effective in reducing inflammation
airway hyperreactivity evoked by methacholine (ΔRI) [10]: able to reduce airway hyperreactivity
